Values of other authors, collected in Sander's compilation of Henry's law constants (doi:10.2175/wer.65.7.2).

Experiment: Henry solubility constant Hcp at 298.15 K (mol/(m3 Pa))
Settings: reference: Smith et al. (1993); cited value

| Structure (SMILES) | Henry solubility constant Hcp |
| --- | --- |
| c1ccc2c(c1)-c1cccc3cccc-2c13 [benzo[jk]fluorene] | 1.5 |
| c1cc2c3c(cccc3c1)CC2 [acenaphthene] | 0.041 |
| Cc1ccc(O)c(C)c1 [1-hydroxy-2,4-dimethylbenzene] | 0.58 |
| c1ccc2cc3ccccc3cc2c1 [anthracene] | 0.11 |
| c1ccc2c(c1)cc1ccc3cccc4ccc2c1c34 [benzo[a]pyrene] | 20 |
| c1ccc2c(c1)-c1cccc3c1c-2cc1ccccc13 [benzo[b]fluoranthene] | 0.83 |
| c1ccc2c(c1)ccc1c3ccccc3ccc21 [chrysene] | 9.4 |
| c1ccc2ccccc2c1 [naphthalene] | 0.02 |
| c1ccc2c(c1)ccc1cc3c(ccc4ccccc43)cc12 [dibenz[a,h]anthracene] | 140 |
| c1ccc2c(c1)Cc1ccccc1-2 [2,3-benzindene] | 0.084 |
| C1=Cc2cccc3cccc1c23 [acenaphthylene] | 0.087 |
| c1ccc2cc3c(cc2c1)-c1cccc2cccc-3c12 [benzo[k]fluoranthene] | 0.25 |
| c1ccc2c(c1)-c1ccc3ccc4cccc5cc-2c1c3c45 [indeno[1,2,3-cd]pyrene] | 140 |
| c1cc2ccc3ccc4ccc5cccc6c(c1)c2c3c4c56 [benzo[ghi]perylene] | 180 |

Experiment: Henry solubility constant Hcp at 294 K (mol/(m3 Pa))
Settings: reference: Smith et al. (1993); cited value

| Structure (SMILES) | Henry solubility constant Hcp at 294 K |
| --- | --- |
| c1ccc2c(c1)ccc1ccccc12 [phenanthrene] | 0.25 |

Experiment: Henry solubility constant Hcp at 293 K (mol/(m3 Pa))
Settings: reference: Smith et al. (1993); cited value

| Structure (SMILES) | Henry solubility constant Hcp at 293 K |
| --- | --- |
| c1ccccc1 [benzene] | 0.0018 |
| Cc1ccccc1 [methylbenzene] | 0.0017 |
